From ChEMBL document CHEMBL2331501, “3H-1,2,4-Dithiazol-3-one compounds as novel potential affordable antitubercular agents” (Bioorg Med Chem Lett, 2013)
In brackets after ≈: the same amount, converted by molar mass.

Columns and labels:
[1] = tested on: Mycobacterium tuberculosis; assay: Antitubercular activity against Mycobacterium tuberculosis H37Rv ATCC 27294 after 11 days by serial dilution method; type: functional; settings: H37Rv ATCC 27294, 264 h
[2] = Cytotoxicity against human L02 cells assessed as inhibitory ratio at 100 uM after 48 hrs by MTT assay; type: cell-based; settings: read-out: INH

For `O=c1oc(-c2cc(F)c(Cl)nc2Cl)ns1`, the MIC90 [1] was 16 µg/mL (≈ 59.9 µM), the MIC99 [1] was 8 µg/mL (≈ 30 µM) and the cytotoxicity at 48 h, 100 µM [2] was 15.1%.

With `O=c1nc(-c2ccc([N+](=O)[O-])cc2Cl)ss1` the MIC90 [1] was 32 µg/mL (≈ 116 µM), the MIC99 [1] was 16 µg/mL (≈ 58.2 µM) and the cytotoxicity at 48 h, 100 µM [2] was 28.6%.

Work on `Cc1ccc(-c2nc(=O)ss2)s1` yielded an MIC90 [1] of 16 µg/mL (≈ 74.3 µM), an MIC99 [1] of 32 µg/mL (≈ 149 µM) and a cytotoxicity at 48 h, 100 µM [2] of 36.3%.

Compound `O=c1oc(-c2cccnc2Cl)ns1` has an MIC90 [1] of 8 µg/mL (≈ 37.3 µM), an MIC99 [1] of 8 µg/mL (≈ 37.3 µM) and a cytotoxicity at 48 h, 100 µM [2] of 31.4%.

In the case of `O=c1nc(-c2ccccc2[N+](=O)[O-])ss1`, the MIC90 [1] is reported as 16 µg/mL (≈ 66.6 µM), the MIC99 [1] is reported as 32 µg/mL (≈ 133 µM) and the cytotoxicity at 48 h, 100 µM [2] is reported as 33%.

With `COc1cccc(-c2nsc(=O)o2)c1` the MIC90 [1] was 8 µg/mL (≈ 38.2 µM), the MIC99 [1] was 16 µg/mL (≈ 76.5 µM) and the cytotoxicity at 48 h, 100 µM [2] was 15%.

With `COc1cccc(-c2nc(=O)ss2)c1` the MIC90 [1] was 16 µg/mL (≈ 71 µM), the MIC99 [1] was 32 µg/mL (≈ 142 µM) and the cytotoxicity at 48 h, 100 µM [2] was 38.6%.

In the case of `O=c1oc(-c2ccc(F)cc2)ns1`, the MIC90 [1] is reported as 16 µg/mL (≈ 81.1 µM), the MIC99 [1] is reported as 16 µg/mL (≈ 81.1 µM) and the cytotoxicity at 48 h, 100 µM [2] is reported as 21.7%.

`COc1ccc(OC)c(-c2nc(=O)ss2)c1` gave an MIC90 [1] of 32 µg/mL (≈ 125 µM), an MIC99 [1] of 32 µg/mL (≈ 125 µM) and a cytotoxicity at 48 h, 100 µM [2] of 23.7%.

In the case of `O=c1nc(-c2ccc(F)cc2)ss1`, the MIC90 [1] is reported as 32 µg/mL (≈ 150 µM), the MIC99 [1] is reported as 16 µg/mL (≈ 75 µM) and the cytotoxicity at 48 h, 100 µM [2] is reported as 33.7%.

With `Nc1ccc(-c2nsc(=O)o2)cc1` the MIC90 [1] was 16 µg/mL (≈ 82.4 µM), the MIC99 [1] was 16 µg/mL (≈ 82.4 µM) and the cytotoxicity at 48 h, 100 µM [2] was 39.5%.

With `Nc1ccc(-c2nc(=O)ss2)cc1` the MIC90 [1] was 16 µg/mL (≈ 76.1 µM), the MIC99 [1] was 32 µg/mL (≈ 152 µM) and the cytotoxicity at 48 h, 100 µM [2] was 46.3%.

Compound `O=c1oc(-c2ccc([N+](=O)[O-])cc2Cl)ns1` has an MIC90 [1] of 16 µg/mL (≈ 61.9 µM), an MIC99 [1] of 16 µg/mL (≈ 61.9 µM) and a cytotoxicity at 48 h, 100 µM [2] of 54.6%.

Compound `Cc1ccccc1-c1nsc(=O)o1` has an MIC90 [1] of 8 µg/mL (≈ 41.4 µM), an MIC99 [1] of 16 µg/mL (≈ 82.8 µM) and a cytotoxicity at 48 h, 100 µM [2] of 18.1%.

For `O=c1oc(-c2cnccn2)ns1`, the MIC90 [1] was 16 µg/mL (≈ 88.3 µM), the MIC99 [1] was 4 µg/mL (≈ 22.1 µM) and the cytotoxicity at 48 h, 100 µM [2] was 31.4%.

Work on `O=c1nc(-c2ccc(Cl)cc2)ss1` yielded an MIC90 [1] of 64 µg/mL (≈ 279 µM), an MIC99 [1] of 32 µg/mL (≈ 139 µM) and a cytotoxicity at 48 h, 100 µM [2] of 46%.

In the case of `Cc1ccccc1-c1nc(=O)ss1`, the MIC90 [1] is reported as 16 µg/mL (≈ 76.4 µM), the MIC99 [1] is reported as 32 µg/mL (≈ 153 µM) and the cytotoxicity at 48 h, 100 µM [2] is reported as 18.6%.

With `O=c1nc(-c2cc(F)c(Cl)nc2Cl)ss1` the MIC90 [1] was 32 µg/mL (≈ 113 µM), the MIC99 [1] was 4 µg/mL (≈ 14.1 µM) and the cytotoxicity at 48 h, 100 µM [2] was 24.3%.

With `O=c1oc(-c2ccccc2Cl)ns1` the MIC90 [1] was 8 µg/mL (≈ 37.4 µM), the MIC99 [1] was 8 µg/mL (≈ 37.4 µM) and the cytotoxicity at 48 h, 100 µM [2] was 20.6%.

In the case of `O=c1nc(-c2ccc3ccccc3c2)ss1`, the MIC90 [1] is reported as 32 µg/mL (≈ 130 µM), the MIC99 [1] is reported as 16 µg/mL (≈ 65.2 µM) and the cytotoxicity at 48 h, 100 µM [2] is reported as 47.2%.

In the case of `O=c1oc(-c2ccc3ccccc3c2)ns1`, the MIC90 [1] is reported as 16 µg/mL (≈ 69.8 µM), the MIC99 [1] is reported as 16 µg/mL (≈ 69.8 µM) and the cytotoxicity at 48 h, 100 µM [2] is reported as 26.2%.

`Cc1sc(-c2nsc(=O)o2)cc1[N+](=O)[O-]` showed an MIC90 [1] of 2 µg/mL (≈ 8.19 µM), an MIC99 [1] of 1 µg/mL (≈ 4.09 µM) and a cytotoxicity at 48 h, 100 µM [2] of 53.8%.

`O=c1oc(-c2ccccc2[N+](=O)[O-])ns1` showed an MIC90 [1] of 8 µg/mL (≈ 35.7 µM), an MIC99 [1] of 16 µg/mL (≈ 71.4 µM) and a cytotoxicity at 48 h, 100 µM [2] of 32.4%.

With `O=c1nc(-c2cnccn2)ss1` the MIC90 [1] was 32 µg/mL (≈ 162 µM), the MIC99 [1] was 16 µg/mL (≈ 81.1 µM) and the cytotoxicity at 48 h, 100 µM [2] was 56.7%.

Work on `COc1ccc(OC)c(-c2nsc(=O)o2)c1` yielded an MIC90 [1] of 16 µg/mL (≈ 66.9 µM), an MIC99 [1] of 16 µg/mL (≈ 66.9 µM) and a cytotoxicity at 48 h, 100 µM [2] of 25.3%.

Work on `O=c1nc(-c2ccccc2Cl)ss1` yielded an MIC90 [1] of 8 µg/mL (≈ 34.8 µM), an MIC99 [1] of 16 µg/mL (≈ 69.7 µM) and a cytotoxicity at 48 h, 100 µM [2] of 40.1%.

`O=c1nc(-c2cccnc2Cl)ss1` gave an MIC90 [1] of 32 µg/mL (≈ 139 µM), an MIC99 [1] of 16 µg/mL (≈ 69.4 µM) and a cytotoxicity at 48 h, 100 µM [2] of 34.4%.

In the case of `O=c1oc(-c2ccc(Cl)cc2)ns1`, the MIC90 [1] is reported as 32 µg/mL (≈ 150 µM), the MIC99 [1] is reported as 4 µg/mL (≈ 18.7 µM) and the cytotoxicity at 48 h, 100 µM [2] is reported as 39.6%.

For `Cc1ccc(-c2nsc(=O)o2)s1`, the MIC90 [1] was 8 µg/mL (≈ 40.1 µM), the MIC99 [1] was 16 µg/mL (≈ 80.3 µM) and the cytotoxicity at 48 h, 100 µM [2] was 25.1%.
